The source of these data is patent publication US20050020565A1, “CCK-1 receptor modulators” (priority 2003, published 2005).

pKi: −log10 of the molar value.

This assay has as its target T1, CCK-1 receptor (Homo sapiens, UniProt P32238).
T1 construct: expressed in transfected cells; membranes
T1 sequence (P32238 1-428): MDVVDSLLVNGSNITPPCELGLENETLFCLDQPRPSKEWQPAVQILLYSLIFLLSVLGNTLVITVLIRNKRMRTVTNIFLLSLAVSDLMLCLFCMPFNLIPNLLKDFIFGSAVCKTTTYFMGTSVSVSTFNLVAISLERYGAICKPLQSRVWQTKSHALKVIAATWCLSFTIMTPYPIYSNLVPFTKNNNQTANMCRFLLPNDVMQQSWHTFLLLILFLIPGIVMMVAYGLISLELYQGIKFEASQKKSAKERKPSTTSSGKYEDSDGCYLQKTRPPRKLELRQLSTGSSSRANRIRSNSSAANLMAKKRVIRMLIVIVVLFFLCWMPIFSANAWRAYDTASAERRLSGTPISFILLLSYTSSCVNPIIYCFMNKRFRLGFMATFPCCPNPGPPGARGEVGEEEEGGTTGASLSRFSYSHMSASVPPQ
Nature of the assay: CCK-1 receptor radioligand binding assay ([125I]-BH-CCK-8S displacement, membranes of stably transfected CHO-K1 cells). To be noted: membranes of CHO-K1 cells stably transfected with CCK-1 receptor, 0.3 μM PD-134,308 present. The procedure: CHO-K1 cells that had undergone-stable transfection with the CCK-1 receptor were grown in DMEM supplemented with L-glutamine (2 mM), penicillin (50 units/mL) and streptomycin (50 μg/mL). Cells were cultured under continuous G418 selection (2 mM) and were harvested using a rubber cell scraper. CHO-K1 cells were sub-cultured a maximum of ten times before being reseeded from the original stocks.
Membranes were prepared from the stably transfected CHO-K1 cells. Frozen cell pellets (−40° C.) were thawed in 14 mL of buffer A (10 mM HEPES, 130 mM NaCl, 4.7 mM KCl, 5 mM MgCl, 1 mM EGTA and 15.4 mg/100 mL bacitracin at pH 7.2), adapted from Harper et al. (Br. J. Pharmacol. (1996) 118, pp 1717-1726). The thawed pellets were homogenized using a Polytron PT-10 (7×1 s). The homogenates were centrifuged for 5 min at 1500 rpm (600×g), and the resulting pellets were discarded. The supernatants were re-centrifuged in order to collect the receptor-membrane pellets (25 min 15,000 rpm; 39,800×g), which were re-suspended in buffer A.
All assays were conducted in 96-well plates (GF/B millipore filter plates) using buffer A, with 0.3 μM PD-134,308, for the dilutions. The CCK-2 receptor ligand was included to eliminate the contribution of this receptor subtype to the binding. For the optimal cell number determination experiments 20 pM [1251]-BH—CCK-8S (50 μL 60 pM solution) was incubated with a range of cell concentrations (2.5×105 to 12.5×10^5 cells/well) in a total volume of 150 μL. Total binding of [1251]-BH—CCK-8S was determined in the presence of 15 μL of buffer A. Non-specific binding of [1 251]-BH—CCK-8S was determined in the presence of 15 μL of 100 μM 2-naphthalenesulphonyl L-aspartyl-(2-phenethyl)amide (2-NAP: see R. A. Hull et al., Br. J. Pharmacol. (1993) 108, pp 734-740), a CCK-1 receptor selective antagonist that is structurally unrelated to the radioligand [1251]-BH—CCK-8S. The assay preparation was incubated for 1 h at 21±3° C., and then the assay was terminated upon rapid filtration of the preparation under reduced pressure. The loaded filters were washed three times using undiluted PBS (100 μL), and then the residues were transferred to 5 mL scintillation tubes. Bound radioactivity was determined using a gamma counter (count time=1 min). From these experiments a cell concentration of 1 pellet in 40 mL of buffer (2.5×10^6 cells/mL) was chosen for use in other assays (below). To validate the radioligand concentration and incubation time for the assay, saturation and kinetic binding studies were also conducted (see M. F. Morton, The Pharmacological Characterization of Cholecystokinin Receptors in the Human Gastrointestinal Tract. PhD Thesis, University of London, 2000). The affinity of novel compounds was estimated by incubating membrane preparations with 15 μL of competing ligand (0.1 pM-1 mM) for 60 min at 21±3° C. The assay was then terminated according to the procedure outlined above.
The pKi values were determined using the equation of Cheng and Prusoff (Biochem. Pharmacol. (1973) 22, pp 3099-3108): [formula]
To circumvent problems associated with computer-assisted data analysis of compounds with low affinity, the data obtained in the current study were weighted according to a method described by Morton (2000). In brief, 100% and 0% specific binding were defined independently using total binding and binding obtained in the presence of a high concentration of the reference antagonist, 2-NAP.
By pKi is commonly meant the negative decadic logarithm of the Ki, by convention in mol/L. `Cc1cccc(C(Cc2cc(-c3ccc4ccccc4c3)nn2C2CCCCC2)C(=O)O)c1` (centres unmarked) [Example 50] had a pKi of 7.00.
Molecule `Cc1cccc(C(Cc2cc(-c3cccnc3)n(-c3ccc(Cl)cc3Cl)n2)C(=O)O)c1` (centres unmarked) [Example 56] gave a pKi of 7.30.
As for `Cc1cccc(C(Cc2cc(-c3ccc(Br)c(C)c3)n(C3CCCCC3)n2)C(=O)O)c1` (centres unmarked) [Example 308], the pKi is 7.20.
As for `Cc1ccc(-n2nc(CC(C(=O)O)c3cccc(C)c3)cc2-c2ccc(N3CCCC3=O)cc2)cc1` (centres unmarked) [Example 104], the pKi was 7.40.
In the case of `Cc1cccc(C(Cc2cc(-c3ccc(Oc4ccccc4)cc3)[nH]n2)C(=O)O)c1` (centres unmarked) [Example 305] it was 5.70; in that of `COc1ccc(-n2nc(CC(C(=O)O)c3ccccc3C(F)(F)F)cc2-c2ccc(Cl)c(Cl)c2)cc1` (centres unmarked) [Example 19], 7.50.
On to `Cc1ccc(-c2cc(CC(C(=O)O)c3cccc(I)c3)nn2-c2ccc(Cl)c(Cl)c2)cc1` (centres unmarked) [Example 24], for which the negative logarithm of the Ki (pKi) was 7.70.
The molecule `COc1ccc(-n2nc(CC(C(=O)O)c3cccc4sccc34)cc2-c2ccc(C)cc2)cc1` (centres unmarked) [Example 153] had a pKi of 7.80.
`O=C(O)/C(=C\c1cc(-c2ccc3ccccc3c2)n(-c2cc(Cl)ccc2Cl)n1)c1cccc(Cl)c1` [Example 112] gave a pKi of 8.40.
In the case of `Cc1cccc(C(Cc2cc(-c3ccc4ccccc4c3)n(-c3ccc(C(F)(F)F)cn3)n2)C(=O)O)c1` (centres unmarked) [Example 80] it was 7.90; in that of `COc1ccc(-n2nc(CC(C(=O)O)c3cccc(F)c3F)cc2-c2ccc(Cl)c(Cl)c2)cc1` (centres unmarked) [Example 18], 7.40.
Consider `COc1ccc(-n2nc(C[C@@H](C(=O)O)c3cccc(C)c3)cc2-c2ccc(Cl)c(Cl)c2)cc1` [Example 3], for which the pKi is 6.60.
For `COc1ccc(-n2nc(CC(C(=O)O)c3cccnc3)cc2-c2ccc(Cl)cc2)cc1` (centres unmarked) [Example 208], the pKi was 5.50.
In turn, `Cc1cccc(C(Cc2cc(-c3ccc(OCc4ccccc4)cc3)n(-c3ccc(OC(F)(F)F)cc3)n2)C(=O)O)c1` (centres unmarked) [Example 58] had a pKi of 6.30.
Molecule `COc1ccc(-n2nc(CC(C(=O)O)c3cccc(C)c3)cc2-c2ccc(C)cc2)cc1` (centres unmarked) [Example 148] showed a pKi of 7.80.
With `Cc1ccc(-c2cc(CC(C(=O)O)c3cccc(SC(F)(F)F)c3)nn2-c2ccc(Cl)c(Cl)c2)cc1` (centres unmarked) [Example 26], the negative-log Ki (pKi) was 7.10.
Molecule `COc1cccc(C(Cc2cc(-c3ccc(C)cc3)n(-c3ccc(Cl)cc3)n2)C(=O)O)c1` (centres unmarked) [Example 157] gave a pKi of 7.90.
With `O=C(O)/C(=C/c1cc(-c2ccc3c(c2)OCO3)n(-c2cc(Cl)ccc2Cl)n1)c1cccc(Cl)c1` [Example 123], the pKi is 6.60.
Turning to `Cc1ccc(-c2cc(CC(CS(=O)(=O)c3ncn[nH]3)c3cccc(C)c3)nn2-c2ccc(C)cc2)cc1` (centres unmarked) [Example 137], the negative logarithm of the Ki (pKi) is 8.00.
As for `COc1ccc(-c2cc(C[C@H](C(=O)O)c3cccc(OC)c3)nn2-c2ccc(OC)cc2)cc1` [Example 32], the figure is 7.20; as for `Cc1ccc(-n2nc(CC(C(=O)O)c3cccc(C)c3)cc2-c2ccc(N3CCCCC3)cc2)cc1` (centres unmarked) [Example 349], 7.10; as for `O=C(O)/C(=C\c1cc(-c2ccc3c(c2)OCO3)n(-c2cc(Cl)ccc2Cl)n1)c1cccc(Cl)c1` [Example 122], 8.80.
Take `Cc1cccc(C(Cc2cc(-c3cccc(Cl)c3)n(C)n2)C(=O)O)c1` (centres unmarked) [Example 303]: the pKi was 5.90.
In turn, `Cc1cccc(C(Cc2cc(-c3ccc4ccccc4c3)[nH]n2)C(=O)O)c1` (centres unmarked) [Example 47] gave a pKi of 6.70.
As for `COc1ccc(-n2nc(CC(C(=O)O)c3cccc(Cl)c3)cc2-c2ccc(Cl)cc2)cc1` (centres unmarked) [Example 37], the figure is 7.70.
In turn, `COc1ccc(-n2nc(C[C@H](C(=O)O)c3cccc4ccccc34)cc2-c2ccc3c(c2)OCO3)cc1` [Example 29] showed a negative logarithm of the Ki (pKi) of 7.40.
Regarding `COc1ccc(-n2nc(CC(C(=O)O)c3coc4ccccc34)cc2-c2ccc3c(c2)OCO3)cc1` (centres unmarked) [Example 262], the pKi was 7.90.
In the case of `COc1ccc(-n2nc(C[C@@H](c3cccc(C)c3)c3nnn[nH]3)cc2-c2ccc(Cl)c(Cl)c2)cc1` [Example 129] it was 7.80; in that of `Cc1ccc(-c2cc(CC(C(=O)O)c3cccc(Cl)c3Cl)nn2-c2ccc(Cl)c(Cl)c2)cc1` (centres unmarked) [Example 46], 7.70.
In the case of `Cc1ccc(-c2cc(CC(C(=O)O)c3cccc(C(F)(F)F)c3F)nn2-c2ccc(Cl)c(Cl)c2)cc1` (centres unmarked) [Example 21] it was 6.80.
In the case of `COc1ccc(-n2nc(CC(C(=O)O)c3cccc(Cl)c3)cc2-c2ccc3c(c2)OCO3)cc1` (centres unmarked) [Example 221], the pKi is 7.80.
As for `COc1ccc(-n2nc(/C=C(/C(=O)O)c3ccc(Cl)c(Cl)c3)cc2-c2ccc(Cl)c(Cl)c2)cc1` [Example 124], the pKi was 7.40.
For `Cc1ccc(-n2nc(CC(C(=O)O)c3cccc(C)c3)cc2-c2ccc(Br)cc2)cc1` (centres unmarked) [Example 77], the pKi is 7.80.
In the case of `COc1cc(-c2cc(CC(C(=O)O)c3cccc(C)c3)nn2-c2ccc(C)cc2)ccc1C` (centres unmarked) [Example 60], the pKi is 8.30.
The molecule `Cc1ccc(-n2nc(CC(C(=O)O)c3cccc(C)c3)cc2-c2ccc3ccccc3c2)cc1` (centres unmarked) [Example 271] showed a pKi of 7.80.
`Cc1cccc(C(Cc2cc(-c3ccc4c(c3)OCO4)n(Cc3ccccc3)n2)C(=O)O)c1` (centres unmarked) [Example 322] gave a pKi of 7.40.
For `COc1ccc(-n2nc(C[C@H](C(=O)O)c3cccc4ccccc34)cc2-c2ccc(C)cc2)cc1` [Example 152], the pKi was 7.90.
Take `COc1ccc(-n2nc(CC(C(=O)O)c3cccc(Cl)c3)cc2-c2ccc(Oc3ccccc3)cc2)cc1` (centres unmarked) [Example 246]: the pKi was 7.40.
In the case of `COc1ccc(-n2nc(/C=C(\C(=O)O)c3ccc(Cl)c(Cl)c3)cc2-c2ccc(Cl)c(Cl)c2)cc1` [Example 118] it was 8.30.
`Cc1cccc(C(Cc2cc(-c3ccc4ccccc4c3)n(C3CCCCC3)n2)C(=O)O)c1` (centres unmarked) [Example 51] showed a pKi of 8.30.
`Cc1cccc(C(Cc2cc(-c3cccc4ccccc34)nn2-c2ccccn2)C(=O)O)c1` (centres unmarked) [Example 79] gave a pKi of 6.90.
Consider `Clc1cccc(C(Cc2cc(-c3ccc4c(c3)OCO4)n(-c3cc(Cl)ccc3Cl)n2)c2nnn[nH]2)c1` (centres unmarked) [Example 132], for which the pKi is 8.00.
In the case of `COc1ccc(-n2nc(C[C@H](CS(=O)(=O)c3ncn[nH]3)c3cccc(C)c3)cc2-c2ccc(Cl)c(Cl)c2)cc1` [Example 138] it was 7.50.
`Cc1cccc(C(Cc2cc(-c3ccc(N(C)C)cc3)n(-c3ccc(OC(F)(F)F)cc3)n2)C(=O)O)c1` (centres unmarked) [Example 287]: the pKi is 7.70.
Molecule `Cc1cccc([C@@H](Cc2cc(-c3ccc4ccccc4c3)n(-c3ccccn3)n2)C(=O)O)c1` [Example 93] had a pKi of 6.60.
Molecule `COc1ccc(-n2nc(CC(C(=O)O)c3cn(C)c4ccccc34)cc2-c2ccc(C)cc2)cc1` (centres unmarked) [Example 72] showed a pKi of 7.30.
In turn, `COc1ccc(-n2nc(/C=C(\C(=O)O)c3cccc(C)c3)cc2-c2ccc(Cl)c(Cl)c2)cc1` [Example 120] gave a pKi of 8.00.
